From PubChem BioAssay (NCI)
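How tested: cells in 96-well plates exposed to compound for 48 hours at five concentrations. TGI marks complete inhibition of growth.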

Tests used:
Test in all cases: NCI anticancer screen, dose series, 48 h
HOP-92 NSCLC = system: HOP-92 NSCLC
UACC-257 melanoma = system: UACC-257 melanoma
T-47D breast = system: T-47D breast
HOP-62 NSCLC = system: HOP-62 NSCLC
COLO 205 colon = system: COLO 205 colon
BT-549 breast = system: BT-549 breast
SN12C renal = system: SN12C renal
TK-10 renal = system: TK-10 renal
A549 NSCLC = system: A549 NSCLC
SNB-75 CNS = system: SNB-75 CNS
NCI/ADR-RES ovarian = system: NCI/ADR-RES ovarian
U251 CNS = system: U251 CNS
OVCAR-8 ovarian = system: OVCAR-8 ovarian
IGROV1 ovarian = system: IGROV1 ovarian
HCT-15 colon = system: HCT-15 colon
SK-OV-3 ovarian = system: SK-OV-3 ovarian
OVCAR-5 ovarian = system: OVCAR-5 ovarian
MALME-3M melanoma = system: MALME-3M melanoma
HS 578T breast = system: HS 578T breast
SF-295 CNS = system: SF-295 CNS

Row | SMILES | TGI (HOP-92 NSCLC) | TGI (UACC-257 melanoma) | TGI (T-47D breast) | TGI (HOP-62 NSCLC) | TGI (COLO 205 colon) | TGI (BT-549 breast) | TGI (SN12C renal) | TGI (TK-10 renal) | TGI (A549 NSCLC) | TGI (SNB-75 CNS) | TGI (NCI/ADR-RES ovarian) | TGI (U251 CNS) | TGI (OVCAR-8 ovarian) | TGI (IGROV1 ovarian) | TGI (HCT-15 colon) | TGI (SK-OV-3 ovarian) | TGI (OVCAR-5 ovarian) | TGI (MALME-3M melanoma) | TGI (HS 578T breast) | TGI (SF-295 CNS)
1 | Clc1ccc(Oc2ccc(N=Cc3ccc(Cl)cc3Cl)cc2Cl)cc1 | > 100 µM | > 100 µM | > 100 µM | > 100 µM | > 100 µM | 93.1 µM | > 100 µM | > 100 µM | > 100 µM | 87.4 µM | 84.9 µM | 89.3 µM | > 100 µM | > 100 µM | > 100 µM | > 100 µM | > 100 µM | 87.4 µM | 71.1 µM | > 100 µM
2 | C[C@]12CC[C@@H]3c4cc(OCC(F)(F)F)c(O)cc4C(=O)C[C@H]3[C@@H]1CC[C@@H]2O | > 100 µM | > 100 µM | > 100 µM | > 100 µM | > 84.5 µM | > 100 µM | > 100 µM | > 100 µM | > 100 µM | 65.7 µM | > 31.3 µM | > 38.8 µM | > 84.7 µM | > 100 µM | > 100 µM | 47.5 µM | > 85.3 µM | 88.1 µM | 43.9 µM | 15.4 µM
3 | S=C(N/N=C(/c1ccccc1)c1ccccn1)Nc1ccccc1Cl | 11 µM | 12.6 µM | 0.857 µM | 16.6 µM | 2.31 µM | 17.3 µM | 14.9 µM | 12.6 µM | 13 µM | 19.4 µM | 5.18 µM | 10.9 µM | 4.98 µM | 7.84 µM | 7.36 µM | 13 µM | 6.94 µM | 12.2 µM | 24 µM | 7.29 µM
4 | O=[N+]([O-])c1cccc2nc3ccccc3c(NCCc3cccc[n+]3[O-])c12 | < 0.0507 µM | 0.0647 µM | 0.852 µM | 0.245 µM | < 0.0168 µM | 0.0917 µM | 0.28 µM | 0.225 µM | < 0.0476 µM |  | 8.67 µM | 0.145 µM | 0.302 µM |  | 0.0639 µM | 0.979 µM | 0.145 µM | < 0.034 µM | 0.299 µM | 0.266 µM
5 | Cc1c(CCOC=O)c(=O)[nH]c2nncn12 | > 100 µM | > 100 µM | > 100 µM | > 100 µM | > 100 µM | > 100 µM | > 100 µM | > 100 µM | > 100 µM | > 100 µM | > 100 µM | > 100 µM | > 100 µM | > 100 µM | > 100 µM | > 100 µM | > 100 µM | > 100 µM | > 100 µM | > 100 µM
6 | O=C(O)C1CCCN1Cc1cc2ccccc2c2ccccc12 (centres undefined) | > 100 µM | > 100 µM | > 100 µM | > 100 µM | > 100 µM | > 100 µM | > 100 µM | > 100 µM | > 100 µM | > 100 µM | > 100 µM | > 100 µM | > 100 µM | > 100 µM | > 100 µM | > 100 µM | > 100 µM | > 100 µM | > 100 µM | > 100 µM
7 | CC1CC[C@@]2(OC1)OC1C[C@H]3[C@@H]4C/C(=N\N(C)C)[C@@]5(O)CC(O)CC[C@]5(C)[C@H]4CC[C@]3(C)C1[C@@H]2C (some centres undefined) | > 100 µM | > 100 µM | > 100 µM | > 100 µM | > 100 µM | > 100 µM | > 100 µM | > 100 µM | > 100 µM |  | > 100 µM | > 100 µM |  | > 100 µM | > 100 µM | > 100 µM | > 100 µM | 83.7 µM | > 100 µM | 
8 | CN(C)CCNc1ccc2c(=O)n(CCN(C)C)c(=O)n3c4ccc([N+](=O)[O-])cc4c(=O)c1c23 | 3.33 µM | 4.42 µM | 6.89 µM | 3.85 µM | 2.12 µM | 2.66 µM | 1.56 µM | 7.1 µM | 2.26 µM | 1.26 µM | 2.1 µM | 2.88 µM | 3.99 µM | 1.29 µM | 1.49 µM | 6.72 µM | 4.54 µM | 1.37 µM | 3.09 µM | 2.31 µM
9 | CC(N)C(C)Cc1ccccc1 (centres undefined) | > 100 µM | > 100 µM | > 100 µM | > 100 µM | > 100 µM | > 100 µM | > 100 µM | > 100 µM | > 100 µM | > 100 µM | > 100 µM | > 100 µM | > 100 µM | > 100 µM | > 100 µM | > 100 µM | > 100 µM | > 100 µM | > 100 µM | > 100 µM
10 | CC1(c2nc3cc(Cl)c(Cl)cc3[nH]2)CCC(CO)C(C)(C)O1 (centres undefined) | > 100 µM | > 100 µM | > 100 µM | > 100 µM | 73.8 µM | 44.8 µM | > 100 µM | > 100 µM | > 100 µM | 66.9 µM | 44.5 µM | > 100 µM | 61.4 µM | 77.6 µM | > 100 µM | > 100 µM | > 100 µM | 84 µM | 53.9 µM | 95.3 µM
11 | CC(C)NC(=O)CN1CCN(C2=CC(=O)c3c(O)ccc(O)c3C2=O)CC1 | 38.3 µM | 19.8 µM | 24.7 µM | 32.3 µM | 9.64 µM | 32.1 µM | 29.1 µM | 31.5 µM | 35.2 µM | 32.6 µM | 25.5 µM | 35.9 µM | > 54 µM | 28.4 µM | 45.3 µM | 77.1 µM | 33.5 µM | 4.41 µM | 62.5 µM | 32.6 µM
12 | CC(C)(C)c1nc2c(o1)C(=O)c1ccccc1C2=O | 6.44 µM | 1.43 µM | 3.97 µM | 6.34 µM | 8.86 µM | 2.84 µM | 2.29 µM | 11.7 µM | 8.22 µM | 6.7 µM | 1.76 µM | 4.6 µM | 3.37 µM | 6.04 µM | 6.45 µM | 10.2 µM | 4.85 µM | 1.48 µM | 4.26 µM | 4.25 µM
13 | O=P(Oc1ccccc1)(Oc1ccccc1)Oc1c[nH]c2ccccc12 | 7.15 µM | 21.8 µM | 52.9 µM | 36.3 µM | 13.9 µM | 34.4 µM | 26 µM | 28.3 µM | 31 µM | 23.9 µM | 18 µM | 31.9 µM | 47.5 µM | 20.7 µM | 28.8 µM | 18.3 µM | 4.56 µM | 37.5 µM | 40.8 µM | 13.1 µM
14 | O=C(NNC(=S)Nc1ccccc1)c1ccccc1Nc1ccccc1C(=O)NNC(=S)Nc1ccccc1 | 30.5 µM | 56.7 µM | > 100 µM | 60.7 µM | 41.5 µM | 57.7 µM | 57.9 µM | 68.7 µM | > 100 µM | > 100 µM | > 100 µM | 50.7 µM | 52.2 µM | 32.3 µM | > 100 µM | 89.8 µM | 33.6 µM | 52.3 µM | 74.9 µM | 57.6 µM
15 | O=C(CC(=O)N1N=C(N2CCCCC2)CC1c1ccccc1)Nc1ccc(Cl)cc1 (centres undefined) | > 100 µM | > 100 µM | > 100 µM | > 100 µM | > 100 µM | > 100 µM | > 100 µM | > 100 µM | > 100 µM | > 100 µM | > 100 µM | > 100 µM | > 100 µM | > 100 µM | > 100 µM |  | > 100 µM | > 100 µM | > 100 µM | > 100 µM
16 | COc1ccc(N=C(C)c2ccncc2)cc1 | > 100 µM | > 100 µM | > 100 µM | > 100 µM | > 100 µM | > 100 µM | > 100 µM | > 100 µM | > 100 µM | > 100 µM | > 100 µM | > 100 µM | > 100 µM | > 100 µM | > 100 µM | > 100 µM | > 100 µM | > 100 µM | > 100 µM | > 100 µM
17 | COC(=O)C1(Cc2ccc3c(c2)CCC3)Cc2ccc3c(c2C1O)CCC3 (centres undefined) | 21.9 µM | 26.1 µM | 33 µM | 28 µM | 25.6 µM | 29.5 µM | 28.5 µM | 54.8 µM | 37.3 µM | > 100 µM | 35.9 µM | 30.6 µM | 39.1 µM |  |  | 51.8 µM |  | 27.3 µM | 42.1 µM | 42.4 µM
18 | Cc1ccc(S(=O)(=O)NN=C2CCCCCCCCCCC2)cc1 | > 100 µM | > 100 µM | > 100 µM | > 100 µM | > 100 µM | > 100 µM | > 100 µM | > 100 µM | > 100 µM |  | > 100 µM | > 100 µM | > 100 µM | > 100 µM | > 100 µM | > 100 µM | > 100 µM | > 100 µM | > 100 µM | > 100 µM
19 | CCc1n[nH]c(=O)n1/N=C/c1ccccc1Cl | > 100 µM | > 100 µM | > 100 µM | > 100 µM | > 100 µM | > 100 µM | > 100 µM | > 100 µM | > 100 µM |  | > 100 µM | > 100 µM | > 100 µM | > 100 µM | > 100 µM | > 100 µM | > 100 µM | > 100 µM | 10.2 µM | > 100 µM
